Experimental data published in patent publication US8067529B2, “Immunogenic T-helper epitopes from human tumour antigens and immunotherapeutic methods using said epitopes” (Immatics Biotechnologies GmbH, priority 2004, dated 2011).

Tests used:
Assay type in all cases: cell-based, human
Ii-fusion proteins = assay: Endosomal/lysosomal targeting of the fusion proteins (chloroquin, Western blot with mAb PIN.1); conditions: transfectants incubated 4 h with increasing amounts of chloroquin (10-100 μM)
Description: Fusion proteins were detected by Western blot analysis using the mAb PIN.1 (Stressgen, Biomol, Hamburg, Germany) which binds to amino acid residues 12-28 of Ii. Briefly, cells were lysed as described (Hsieh, C. S., deRoos, P., Honey, K., Beers, C. & Rudensky, A. Y. (2002) J. Immunol. 168, 2618-2625), lysates were boiled in Laemmli loading buffer, separated on a 12% SDS-PAGE and transferred onto nitrocellulose membranes. After a saturation step with BSA, membranes were incubated for 1 h at room temperature with the mAb PIN.1 (1 μg/ml). Proteins were visualised using a peroxidase-coupled sheep anti-mouse IgG (Amersham Pharmacia, Freiburg, Germany). […] Cells were then lysed and proteins were detected by Western blot as described above.
It has already been described that the N-terminus of Ii is sufficient to target proteins into the MHC class II pathway (Sanderson, S., Frauwirth, K. & Shastri, N. (1995) Proc. Natl. Acad. Sci. U.S. A 92, 7217-7221, Wang, R. F., Wang, X., Atwood, A. C., Topalian, S. L. & Rosenberg, S. A. (1999) Science 284, 1351-1354, Malcherek, G., Wirblich, C., Willcox, N., Rammensee, H. G., Trowsdale, J. & Melms, A. (1998) Eur. J. Immunol. 28, 1524-1533). […] Cells were then lysed and fusion proteins were detected by Western blot.

T-helper cell line = assay: T-helper cell proliferation by thymidine incorporation (stimulation index); conditions: T-helper cell line with irradiated autologous PBMC; 10 μM peptide or 3 μg/ml PHA; thymidine incorporation at 72 hours
Description: 3×10^5 matured DC were loaded for two hours with 10 μM of peptide […] (SEQ ID NO: 1) in a 24-well plate and extensively washed. Then 4×10^6 fresh autologous PBMC were added onto DC in the presence of 10 ng/ml IL-12p70 in order to favour Th-1 development. PBMC were weekly restimulated with peptide-loaded irradiated autologous PBMC in the presence of 10 U/ml IL-2 and 5 ng/ml IL-7. After 3 and 5 restimulations, T cells were pooled and tested against autologous PBMC in the presence of peptide. […]
T-helper cell activation was tested by cell proliferation as estimated by thymidine incorporation as well as cytokine secretion. […] After 54 hours, 50 μl of tritiated thymidine-containing medium (0.074 MBq/well, Hartmann Analytic, Braunschweig, Germany) was added and thymidine incorporation measured at 72 hours using a scintillation counter (Microbeta, Wallac, Freiburg, Germany). Cell proliferation is expressed as a stimulation index (S.I.), which corresponds to the ratio: (mean cpm of stimulated T cells)/(mean cpm of unstimulated T cells). IL-2 secretion was measured using the IL-2 dependent CTLL-2 cell line. […] Then, thymidine-containing-medium (0.055 MBq/well) was added for 7-8 additional hours and thymidine incorporation was measured as described above. Results are also expressed as a S.I.

IL-2 = IL-2 secretion measured with the IL-2 dependent CTLL-2 cell line; conditions: T-helper cell line with autologous PBMC; 10 μM peptide or 3 μg/ml PHA; 24 hours supernatant
Description: (§1) T-helper cell activation was tested by cell proliferation as estimated by thymidine incorporation as well as cytokine secretion. Briefly, 2×10^5 cells were incubated in triplicates in a 96-well plate with 2×10^5 irradiated autologous PBMC in the presence or absence of 10 μM peptide or 3 μg/ml PHA. After 24 hours, two portions of 50 μl supernatant were harvested and frozen and 50 μl fresh medium was added to the cells. After 54 hours, 50 μl of tritiated thymidine-containing medium (0.074 MBq/well, Hartmann Analytic, Braunschweig, Germany) was added and thymidine incorporation measured at 72 hours using a scintillation counter (Microbeta, Wallac, Freiburg, Germany). Cell proliferation is expressed as a stimulation index (S.I.), which corresponds to the ratio: (mean cpm of stimulated T cells)/(mean cpm of unstimulated T cells). IL-2 secretion was measured using the IL-2 dependent CTLL-2 cell line. Briefly, 10^4 cells were incubated in the presence of supernatants for 20-24 hours. Then, thymidine-containing-medium (0.055 MBq/well) was added for 7-8 additional hours and thymidine incorporation was measured as described above. Results are also expressed as a S.I.

IFN-γ = IFN-γ secretion by sandwich ELISA; conditions: peptide-induced T-cell stimulation, 10 μM peptide; 24 hours supernatant
Description: as §1, with “cell line. […] Then, thymidine-containing-medium” for “cell line. Briefly, 10^4 cells were incubated in the presence of supernatants for 20-24 hours. Then, thymidine-containing-medium”, “a S.I. IFN-γ, IL-4 and IL-6 secretion was measured by sandwich ELISA using antibody pairs and peroxidase-conjugated streptavidin from PharMingen and according to Manufacturer's recommendations. […] OD450 was then measured and results expressed in pg/ml according to the standards.” for “a S.I.”

IL-4 = IL-4 secretion by sandwich ELISA; conditions: T-helper cell line; 10 μM peptide or 3 μg/ml PHA
Description: as §1, with “cell line. […] Then, thymidine-containing-medium” for “cell line. Briefly, 10^4 cells were incubated in the presence of supernatants for 20-24 hours. Then, thymidine-containing-medium”, “a S.I. IFN-γ, IL-4 and IL-6 secretion was measured by sandwich ELISA using antibody pairs and peroxidase-conjugated streptavidin from PharMingen and according to Manufacturer's recommendations. […] OD450 was then measured and results expressed in pg/ml according to the standards.” for “a S.I.”

IL-6 = IL-6 secretion by sandwich ELISA; conditions: T-helper cell line; 10 μM peptide or 3 μg/ml PHA
Description: as §1, with “cell line. […] Then, thymidine-containing-medium” for “cell line. Briefly, 10^4 cells were incubated in the presence of supernatants for 20-24 hours. Then, thymidine-containing-medium”, “a S.I. IFN-γ, IL-4 and IL-6 secretion was measured by sandwich ELISA using antibody pairs and peroxidase-conjugated streptavidin from PharMingen and according to Manufacturer's recommendations. […] OD450 was then measured and results expressed in pg/ml according to the standards.” for “a S.I.”

| Compound | fusion protein amounts (Western blot band intensity) (Ii-fusion proteins) | T-cell proliferation, stimulation index (S.I.) (T-helper cell line) | IL-2 production of the T cells (IL-2) | IFN-γ secretion (IFN-γ) [pg/mL] | IL-4 secretion (IL-4) | IL-6 secretion (IL-6) |
| --- | --- | --- | --- | --- | --- | --- |
| CCN(CC)CCCC(C)Nc1ccnc2cc(Cl)ccc12 (stereo not shown) [chloroquin] | fusion protein amounts increase with chloroquin concentrations |  |  |  |  |  |
| NPPSMVAAGSVVAAV (listed as Homo sapiens) [cyclin D1 peptide, immunogenic HLA-DR4-presented cyclin D1 peptide antigen] |  | 5.4 | produced IL-2 in response to the peptide, although to a low extent | 3250 | no IL-4 or IL-6 secretion | no IL-4 or IL-6 secretion |
| Phytohaemagglutinin [PHA] |  | 330 | still sensitive to PHA stimulation |  | highly | moderately |
